MIC data for five compounds are collected here from ChEMBL document CHEMBL1131977, “Synthesis and in vitro activity of new oxazolidinone antibacterial agents having substituted isoxazoles” (1999).

In brackets after ≈: the same amount, converted by molar mass.

The test system of the first test is Enterococcus faecium. The test can be described thus: In vitro antibacterial activity against Enterococcus faecium C6301 (E.f.2). In kind it is functional.
The MIC is the lowest concentration that inhibits growth of the organism. The low end stands for greater potency, the high end for weaker potency. Turning to `CC(=O)NC[C@H]1CN(c2ccc(N3CCN(C(=O)c4cc(-c5nccs5)no4)CC3)c(F)c2)C(=O)O1`, inhibition of growth (MIC) required 1 µg/mL (≈ 1.94 µM).

Consider `CC(=O)NC[C@H]1CN(c2ccc(N3CCN(Cc4cc(-c5ccccn5)no4)CC3)c(F)c2)C(=O)O1`, for which the MIC stood at 2 µg/mL (≈ 4.04 µM).

Compound `CC(=O)NC[C@H]1CN(c2ccc(N3CCN(C(=O)c4ccno4)CC3)c(F)c2)C(=O)O1` came in with an MIC of 1 µg/mL (≈ 2.32 µM).

For `COc1cc(C(=O)N2CCN(c3ccc(N4C[C@H](CNC(C)=O)OC4=O)cc3F)CC2)on1`, the MIC came to 2 µg/mL (≈ 4.33 µM).

Consider `CC(=O)NC[C@H]1CN(c2ccc(N3CCN(C(=O)c4cc(COC(=O)N(C)C)no4)CC3)c(F)c2)C(=O)O1`, for which inhibition of growth (MIC) required 2 µg/mL (≈ 3.76 µM).

The test system of the next test is Enterococcus faecium. The test can be described thus: In vitro antibacterial activity against vancomycin-resistant Enterococcus faecium C6487 (VRE). In kind it is functional.
The compound `CC(=O)NC[C@H]1CN(c2ccc(N3CCN(C(=O)c4cc(-c5nccs5)no4)CC3)c(F)c2)C(=O)O1` displayed an MIC of 0.5 µg/mL (≈ 0.972 µM).

Compound `CC(=O)NC[C@H]1CN(c2ccc(N3CCN(Cc4cc(-c5ccccn5)no4)CC3)c(F)c2)C(=O)O1` gave an MIC of 2 µg/mL (≈ 4.04 µM).

`CC(=O)NC[C@H]1CN(c2ccc(N3CCN(C(=O)c4ccno4)CC3)c(F)c2)C(=O)O1` showed an MIC of 22 µg/mL (≈ 51 µM).

Turning to `COc1cc(C(=O)N2CCN(c3ccc(N4C[C@H](CNC(C)=O)OC4=O)cc3F)CC2)on1`, 2 µg/mL (≈ 4.33 µM) was the least that counted as inhibitory (MIC).

In the case of `CC(=O)NC[C@H]1CN(c2ccc(N3CCN(C(=O)c4cc(COC(=O)N(C)C)no4)CC3)c(F)c2)C(=O)O1`, 2 µg/mL (≈ 3.76 µM) was the least that counted as inhibitory (MIC).

The test system of the next test is Enterococcus faecalis. The experiment in a line: In vitro antibacterial activity against Enterococcus faecalis C6291 (E.f.1). In kind it is functional.
In the case of `CC(=O)NC[C@H]1CN(c2ccc(N3CCN(C(=O)c4cc(-c5nccs5)no4)CC3)c(F)c2)C(=O)O1`, 1 µg/mL (≈ 1.94 µM) was the least that counted as inhibitory (MIC).

`CC(=O)NC[C@H]1CN(c2ccc(N3CCN(Cc4cc(-c5ccccn5)no4)CC3)c(F)c2)C(=O)O1` yielded an MIC of 2 µg/mL (≈ 4.04 µM).

Take `CC(=O)NC[C@H]1CN(c2ccc(N3CCN(C(=O)c4ccno4)CC3)c(F)c2)C(=O)O1`: 2 µg/mL (≈ 4.64 µM) was the least that counted as inhibitory (MIC).

In turn, `COc1cc(C(=O)N2CCN(c3ccc(N4C[C@H](CNC(C)=O)OC4=O)cc3F)CC2)on1` came in with an MIC of 2 µg/mL (≈ 4.33 µM).

Take `CC(=O)NC[C@H]1CN(c2ccc(N3CCN(C(=O)c4cc(COC(=O)N(C)C)no4)CC3)c(F)c2)C(=O)O1`: the MIC came out at 2 µg/mL (≈ 3.76 µM).

Another test deals with Staphylococcus epidermidis. The experiment in a line: In vitro antibacterial activity against Staphylococcus epidermis (S.e.1) […]. In kind it is functional.
On to `CC(=O)NC[C@H]1CN(c2ccc(N3CCN(C(=O)c4cc(-c5nccs5)no4)CC3)c(F)c2)C(=O)O1`, for which the MIC stood at 0.5 µg/mL (≈ 0.972 µM).

`CC(=O)NC[C@H]1CN(c2ccc(N3CCN(Cc4cc(-c5ccccn5)no4)CC3)c(F)c2)C(=O)O1` displayed an MIC of 1 µg/mL (≈ 2.02 µM).

For `CC(=O)NC[C@H]1CN(c2ccc(N3CCN(C(=O)c4ccno4)CC3)c(F)c2)C(=O)O1`, 1 µg/mL (≈ 2.32 µM) was the least that counted as inhibitory (MIC).

In turn, `COc1cc(C(=O)N2CCN(c3ccc(N4C[C@H](CNC(C)=O)OC4=O)cc3F)CC2)on1` displayed an MIC of 0.5 µg/mL (≈ 1.08 µM).

As to `CC(=O)NC[C@H]1CN(c2ccc(N3CCN(C(=O)c4cc(COC(=O)N(C)C)no4)CC3)c(F)c2)C(=O)O1`, the MIC was found to be 1 µg/mL (≈ 1.88 µM).

Another test has as its system Staphylococcus epidermidis. The experiment in a line: In vitro antibacterial activity against Staphylococcus epidermis (S.e.2) C2235. In kind it is functional.
As to `CC(=O)NC[C@H]1CN(c2ccc(N3CCN(C(=O)c4cc(-c5nccs5)no4)CC3)c(F)c2)C(=O)O1`, the lowest concentration to inhibit growth (MIC) was 0.5 µg/mL (≈ 0.972 µM).

`CC(=O)NC[C@H]1CN(c2ccc(N3CCN(Cc4cc(-c5ccccn5)no4)CC3)c(F)c2)C(=O)O1`: 1 µg/mL (≈ 2.02 µM) was the least that counted as inhibitory (MIC).

For the compound `CC(=O)NC[C@H]1CN(c2ccc(N3CCN(C(=O)c4ccno4)CC3)c(F)c2)C(=O)O1`, it took 1 µg/mL (≈ 2.32 µM) to inhibit growth (MIC).

In turn, `COc1cc(C(=O)N2CCN(c3ccc(N4C[C@H](CNC(C)=O)OC4=O)cc3F)CC2)on1` gave an MIC of 0.5 µg/mL (≈ 1.08 µM).

For `CC(=O)NC[C@H]1CN(c2ccc(N3CCN(C(=O)c4cc(COC(=O)N(C)C)no4)CC3)c(F)c2)C(=O)O1`, 2 µg/mL (≈ 3.76 µM) was the least that counted as inhibitory (MIC).

In another test the test system is Staphylococcus aureus. The test can be described thus: In vitro antibacterial activity against ciprofloxacin-resistant Staphylococcus aureus (CRSA) C6043. In kind it is functional.
`CC(=O)NC[C@H]1CN(c2ccc(N3CCN(C(=O)c4cc(-c5nccs5)no4)CC3)c(F)c2)C(=O)O1` gave an MIC of 0.5 µg/mL (≈ 0.972 µM).

Compound `CC(=O)NC[C@H]1CN(c2ccc(N3CCN(Cc4cc(-c5ccccn5)no4)CC3)c(F)c2)C(=O)O1` showed an MIC of 2 µg/mL (≈ 4.04 µM).

The compound `CC(=O)NC[C@H]1CN(c2ccc(N3CCN(C(=O)c4ccno4)CC3)c(F)c2)C(=O)O1` displayed an MIC of 2 µg/mL (≈ 4.64 µM).

`COc1cc(C(=O)N2CCN(c3ccc(N4C[C@H](CNC(C)=O)OC4=O)cc3F)CC2)on1` had an MIC of 4 µg/mL (≈ 8.67 µM).

Consider `CC(=O)NC[C@H]1CN(c2ccc(N3CCN(C(=O)c4cc(COC(=O)N(C)C)no4)CC3)c(F)c2)C(=O)O1`, for which it took 4 µg/mL (≈ 7.51 µM) to inhibit growth (MIC).

Another test deals with Staphylococcus aureus. The experiment in a line: In vitro antibacterial activity against Staphylococcus aureus (S. a.) ATCC 29213. In kind it is functional.
`CC(=O)NC[C@H]1CN(c2ccc(N3CCN(C(=O)c4cc(-c5nccs5)no4)CC3)c(F)c2)C(=O)O1`: inhibition of growth (MIC) required 2 µg/mL (≈ 3.89 µM).

In turn, `CC(=O)NC[C@H]1CN(c2ccc(N3CCN(Cc4cc(-c5ccccn5)no4)CC3)c(F)c2)C(=O)O1` showed an MIC of 2 µg/mL (≈ 4.04 µM).

Consider `CC(=O)NC[C@H]1CN(c2ccc(N3CCN(C(=O)c4ccno4)CC3)c(F)c2)C(=O)O1`, for which it took 2 µg/mL (≈ 4.64 µM) to inhibit growth (MIC).

`COc1cc(C(=O)N2CCN(c3ccc(N4C[C@H](CNC(C)=O)OC4=O)cc3F)CC2)on1` yielded a minimum inhibitory concentration (MIC) of 4 µg/mL (≈ 8.67 µM).

As to `CC(=O)NC[C@H]1CN(c2ccc(N3CCN(C(=O)c4cc(COC(=O)N(C)C)no4)CC3)c(F)c2)C(=O)O1`, the MIC was determined as 4 µg/mL (≈ 7.51 µM).

Another test has as its system Staphylococcus aureus. The experiment in a line: In vitro antibacterial activity against methicillin-resistant Staphylococcus aureus (MRSA) C6068. In kind it is functional.
The compound `CC(=O)NC[C@H]1CN(c2ccc(N3CCN(C(=O)c4cc(-c5nccs5)no4)CC3)c(F)c2)C(=O)O1` showed an MIC of 0.5 µg/mL (≈ 0.972 µM).

`CC(=O)NC[C@H]1CN(c2ccc(N3CCN(Cc4cc(-c5ccccn5)no4)CC3)c(F)c2)C(=O)O1` returned an MIC of 2 µg/mL (≈ 4.04 µM).

Take `CC(=O)NC[C@H]1CN(c2ccc(N3CCN(C(=O)c4ccno4)CC3)c(F)c2)C(=O)O1`: the MIC turned out to be 1 µg/mL (≈ 2.32 µM).

Consider `COc1cc(C(=O)N2CCN(c3ccc(N4C[C@H](CNC(C)=O)OC4=O)cc3F)CC2)on1`, for which the MIC amounted to 2 µg/mL (≈ 4.33 µM).

The compound `CC(=O)NC[C@H]1CN(c2ccc(N3CCN(C(=O)c4cc(COC(=O)N(C)C)no4)CC3)c(F)c2)C(=O)O1` had an MIC of 2 µg/mL (≈ 3.76 µM).

Another test has as its system Staphylococcus aureus. The test can be described thus: In vitro antibacterial activity against methicillin-susceptible Staphylococcus aureus (MSSA) C2214. In kind it is functional.
For `CC(=O)NC[C@H]1CN(c2ccc(N3CCN(C(=O)c4cc(-c5nccs5)no4)CC3)c(F)c2)C(=O)O1`, the lowest concentration to inhibit growth (MIC) was 1 µg/mL (≈ 1.94 µM).

In turn, `CC(=O)NC[C@H]1CN(c2ccc(N3CCN(Cc4cc(-c5ccccn5)no4)CC3)c(F)c2)C(=O)O1` registered an MIC of 4 µg/mL (≈ 8.09 µM).

As to `CC(=O)NC[C@H]1CN(c2ccc(N3CCN(C(=O)c4ccno4)CC3)c(F)c2)C(=O)O1`, it took 2 µg/mL (≈ 4.64 µM) to inhibit growth (MIC).

`COc1cc(C(=O)N2CCN(c3ccc(N4C[C@H](CNC(C)=O)OC4=O)cc3F)CC2)on1`: 4 µg/mL (≈ 8.67 µM) was the least that counted as inhibitory (MIC).

Regarding `CC(=O)NC[C@H]1CN(c2ccc(N3CCN(C(=O)c4cc(COC(=O)N(C)C)no4)CC3)c(F)c2)C(=O)O1`, the lowest concentration to inhibit growth (MIC) was 4 µg/mL (≈ 7.51 µM).

Another test has as its system Streptococcus pyogenes. The experiment in a line: In vitro antibacterial activity against Streptococcus pyogenes ATCC 8668 (S.p.1). In kind it is functional.
Compound `CC(=O)NC[C@H]1CN(c2ccc(N3CCN(C(=O)c4cc(-c5nccs5)no4)CC3)c(F)c2)C(=O)O1` had an MIC of 0.25 µg/mL (≈ 0.486 µM).

`CC(=O)NC[C@H]1CN(c2ccc(N3CCN(Cc4cc(-c5ccccn5)no4)CC3)c(F)c2)C(=O)O1` displayed an MIC of 0.5 µg/mL (≈ 1.01 µM).

The compound `CC(=O)NC[C@H]1CN(c2ccc(N3CCN(C(=O)c4ccno4)CC3)c(F)c2)C(=O)O1` displayed an MIC of 0.5 µg/mL (≈ 1.16 µM).

`COc1cc(C(=O)N2CCN(c3ccc(N4C[C@H](CNC(C)=O)OC4=O)cc3F)CC2)on1` had an MIC of 0.5 µg/mL (≈ 1.08 µM).

Regarding `CC(=O)NC[C@H]1CN(c2ccc(N3CCN(C(=O)c4cc(COC(=O)N(C)C)no4)CC3)c(F)c2)C(=O)O1`, the MIC was found to be 0.5 µg/mL (≈ 0.939 µM).

In a further test the test system is Streptococcus pyogenes. The experiment in a line: In vitro antibacterial activity against Streptococcus pyogenes C6003 (S.p.2). In kind it is functional.
Turning to `CC(=O)NC[C@H]1CN(c2ccc(N3CCN(C(=O)c4cc(-c5nccs5)no4)CC3)c(F)c2)C(=O)O1`, the MIC came to 0.5 µg/mL (≈ 0.972 µM).

`CC(=O)NC[C@H]1CN(c2ccc(N3CCN(Cc4cc(-c5ccccn5)no4)CC3)c(F)c2)C(=O)O1`: the MIC is 0.5 µg/mL (≈ 1.01 µM).

As for `CC(=O)NC[C@H]1CN(c2ccc(N3CCN(C(=O)c4ccno4)CC3)c(F)c2)C(=O)O1`, 0.5 µg/mL (≈ 1.16 µM) was the least that counted as inhibitory (MIC).

Compound `COc1cc(C(=O)N2CCN(c3ccc(N4C[C@H](CNC(C)=O)OC4=O)cc3F)CC2)on1` gave an MIC of 0.5 µg/mL (≈ 1.08 µM).

`CC(=O)NC[C@H]1CN(c2ccc(N3CCN(C(=O)c4cc(COC(=O)N(C)C)no4)CC3)c(F)c2)C(=O)O1` showed an MIC of 0.5 µg/mL (≈ 0.939 µM).
